Data on 13 molecules can be found in ChEMBL document CHEMBL1131745, “Novel C-ring analogues of 20(S)-camptothecin-part-2: synthesis and in vitro cytotoxicity of 5-C-substituted 20(S)-camptothecin analogues” (1999).

Format in all cases: functional
Assay [1] relates to ACHN. As to the kind of experiment: In vitro anti-cancer activity against ACHN(Renal) human tumor cell line.
The test system of assay [2] is DU-145. As to the kind of experiment: In vitro anti-cancer activity against DU-145 (Prostate) human tumor cell line.
For assay [3], the system named is HOP-62. Kind of assay: In vitro anti-cancer activity against HOP 62(Lung) human tumor cell line.
Assay [4] concerns NCI/ADR-RES. Kind of assay: In vitro anti-cancer activity against MCF-7/ADR (Breast) human tumor cell lines.
For assay [5], the system named is OVCAR-8. Kind of assay: In vitro anti-cancer activity against OVCAR 8(Ovarian) human tumor cell lines.
Assay [6] deals with SF-268. As to the kind of experiment: In vitro anti-cancer activity against SF 268(CNS) human tumor cell lines.
Assay [7] has as its system UACC-62. Kind of assay: In vitro anti-cancer activity against UACC 62(Melanoma) human tumor cell line.
Assay [8] concerns NCI/ADR-RES. As to the kind of experiment: In vitro anti-cancer activity against MCF-7/ADR (Breast) human tumor cell line.
Assay [9] has as its system OVCAR-8. As to the kind of experiment: In vitro anti-cancer activity against OVCAR 8(Ovarian) human tumor cell line.
Assay [10] concerns SF-268. As to the kind of experiment: In vitro anti-cancer activity against SF 268(CNS) human tumor cell line.

Each structure is given as a SMILES string.

Consider `CC[C@@]1(O)C(=O)OCc2c1cc1n(c2=O)C(CC(=O)OCC(F)(F)F)c2cc3ccccc3nc2-1` (stereo not given in full), for which the GI50 – broadly, the concentration giving 50% growth inhibition – in assay [1] stood at 170 nM; in [2] it was 280 nM; in assay [3], 130 nM; in assay [4], 500 nM; in assay [5] it was 1120 nM; in assay [6], 140 nM. This molecule also registered a GI50 in assay [7] of 300 nM.
As for `CC[C@@]1(O)C(=O)OCc2c1cc1n(c2=O)C(CC(=O)OC)c2cc3c(O)cccc3nc2-1` (stereo not given in full), the GI50 in [1] was 440 nM; in assay [2] it was 600 nM; in assay [3] it was 2090 nM; in [5], 1720 nM; in assay [6] it was 2320 nM; in [7], 1720 nM.
For the molecule `CC[C@@]1(O)C(=O)OCc2c1cc1n(c2=O)Cc2cc3c(CN(C)C)c(O)ccc3nc2-1` [TOPOTECAN], the GI50 was 40 nM in [1]; 40 nM in assay [2]; 50 nM in assay [3]; 70 nM in [8]; 200 nM in assay [9]; 80 nM in assay [10]. This molecule also displayed a GI50 in assay [7] of 30 nM.
Take `CC[C@@]1(O)C(=O)OCc2c1cc1n(c2=O)C(CC(C)=O)c2cc3ccccc3nc2-1` (stereo not given in full): the GI50 in [1] was determined as 3030 nM; in [2] it was 3920 nM; in [4] it was 3880 nM; in assay [5], 7390 nM; in [6] it was 7150 nM; in [7] it was 3540 nM.
As to `CC[C@@]1(O)C(=O)OCc2c1cc1n(c2=O)C(CC(=O)OCCO)c2cc3ccccc3nc2-1` (stereo not given in full), the GI50 in assay [1] is 10000 nM; in assay [2] it was 1000 nM; in assay [3], greater than 30000 nM; in assay [4], 6000 nM; in assay [5], 250 nM; in [6] it was 1000 nM. This molecule had a GI50 in assay [7] of 200 nM.
`CC[C@@]1(O)C(=O)OCc2c1cc1n(c2=O)C(CC(N)=O)c2cc3ccccc3nc2-1` (stereo not given in full): the GI50 in assay [1] is 16000 nM; in assay [2] it was 12000 nM; in assay [3], greater than 30000 nM; in assay [5], 20000 nM; in assay [6] it was 29000 nM; in [7], 16000 nM.
Take `CC[C@@]1(O)C(=O)OCc2c1cc1n(c2=O)C(CC(C)=O)c2cc3c(O)cccc3nc2-1` (stereo not given in full): the GI50 in [1] came out at 1000 nM; in assay [2] it was 2000 nM; in assay [3] it was 4000 nM; in assay [4] it was 5000 nM; in [5], 3500 nM; in [6], 4000 nM. In assay [7], this molecule had a GI50 of 7500 nM.
Turning to `CC[C@@]1(O)C(=O)OCc2c1cc1n(c2=O)C(CC(=O)OCCF)c2cc3ccccc3nc2-1` (stereo not given in full), the GI50 was 80 nM in [1]; 100 nM in [2]; greater than 30000 nM in [3]; 6000 nM in [4]; 40 nM in assay [5]; 50 nM in assay [6]. In assay [7], this molecule registered a GI50 of 200 nM.
For the molecule `CC[C@@]1(O)C(=O)OCc2c1cc1n(c2=O)C(CC(=O)N2CCCCC2)c2cc3ccccc3nc2-1` (stereo not given in full), the GI50 in assay [1] came to 340 nM; in assay [2], 320 nM; in assay [3], 530 nM; in assay [4], 3030 nM; in assay [5], 3570 nM; in assay [6], 650 nM. In assay [7], this molecule displayed a GI50 of 330 nM.
Regarding `CC[C@@]1(O)C(=O)OCc2c1cc1n(c2=O)C(CC(=O)N2CCCC2)c2cc3ccccc3nc2-1` (stereo not given in full), the GI50 came to 210 nM in assay [1]; 450 nM in assay [2]; 290 nM in assay [3]; 790 nM in assay [4]; 760 nM in assay [5]; 410 nM in [7].
Take `CC[C@@]1(O)C(=O)OCc2c1cc1n(c2=O)C(CC(C)=O)c2cc3cc([N+](=O)[O-])ccc3nc2-1` (stereo not given in full): the GI50 is 170 nM in [1]; 280 nM in assay [2]; 130 nM in [3]; 500 nM in [4]; 1120 nM in assay [5]; 140 nM in assay [6]. In assay [7], this molecule registered a GI50 of 300 nM.
Take `CC[C@@]1(O)C(=O)OCc2c1cc1n(c2=O)C(CC(=O)OC)c2cc3cc([N+](=O)[O-])ccc3nc2-1` (stereo not given in full): the GI50 in assay [1] is 4610 nM; in assay [2], 8510 nM; in [3], 5250 nM; in [5], 12600 nM; in [6] it was 26200 nM; in assay [7] it was 4040 nM.
On to `CC[C@@]1(O)C(=O)OCc2c1cc1n(c2=O)C(CC(=O)OC)c2cc3ccccc3nc2-1` (stereo not given in full), for which the GI50 is 5290 nM in [1]; 15500 nM in assay [2]; 7200 nM in assay [4]; 16300 nM in assay [5]; 18600 nM in [6]; 6440 nM in [7].
